Measured values reported in PubChem BioAssay AID2060504 (Molecular Pharmacology Branch, DTP, NCI, 2025).

Tested on: 636577-100-R-J1-PDC complex spheroid viability
Assay: Anticancer human tumor 636577-100-R-J1-PDC patient-derived endometrial adenocarcinoma cell line growth inhibition [GQUAD]
Settings: for IC50: curve of first compound; for viability, T/C: stronger effect = lower value
Procedure, shortened: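 Tumor cells were grown as complex spheroids with HUVEC endothelial cells and mesenchymal stem cells as stroma. G-quadruplex stabilizers were combined with targeted agents over half-log dilutions from near the clinical Cmax, or from 10 microM.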

[1] = second compound 0.0316 µM, first compound 0.0316 µM
[2] = second compound 0.0316 µM, first compound 0.316 µM
[3] = second compound 0.1 µM, first compound 0.0316 µM
[4] = second compound 0.1 µM, first compound 0.316 µM
[5] = second compound 0.316 µM, first compound 0.0316 µM
[6] = second compound 0.316 µM, first compound 0.316 µM
[7] = second compound 1 µM, first compound 0.0316 µM
[8] = second compound 1 µM, first compound 0.316 µM
[9] = second compound 3.16 µM, first compound 0.0316 µM
[10] = second compound 3.16 µM, first compound 0.316 µM
[11] = second compound 10 µM, first compound 0.0316 µM
[12] = second compound 10 µM, first compound 0.316 µM
[13] = second compound 0.0316 µM, first compound 0.000999 µM
[14] = second compound 0.0316 µM, first compound 0.00316 µM
[15] = second compound 0.0316 µM, first compound 0.00999 µM
[16] = second compound 0.0316 µM, first compound 0.0999 µM
[17] = second compound 0.1 µM, first compound 0.000999 µM
[18] = second compound 0.1 µM, first compound 0.00316 µM
[19] = second compound 0.1 µM, first compound 0.00999 µM
[20] = second compound 0.1 µM, first compound 0.0999 µM
[21] = second compound 0.316 µM, first compound 0.000999 µM
[22] = second compound 0.316 µM, first compound 0.00316 µM
[23] = second compound 0.316 µM, first compound 0.00999 µM
[24] = second compound 0.316 µM, first compound 0.0999 µM
[25] = second compound 1 µM, first compound 0.000999 µM
[26] = second compound 1 µM, first compound 0.00316 µM
[27] = second compound 1 µM, first compound 0.00999 µM
[28] = second compound 1 µM, first compound 0.0999 µM
[29] = second compound 3.16 µM, first compound 0.000999 µM
[30] = second compound 3.16 µM, first compound 0.00316 µM
[31] = second compound 3.16 µM, first compound 0.00999 µM
[32] = second compound 3.16 µM, first compound 0.0999 µM
[33] = second compound 10 µM, first compound 0.000999 µM
[34] = second compound 10 µM, first compound 0.00316 µM
[35] = second compound 10 µM, first compound 0.00999 µM
[36] = second compound 10 µM, first compound 0.0999 µM
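Note: viability read after seven days of drug exposure.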
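Throughout, for viability, T/C: luminescence signal used as a proxy for viable cells; 100% = DMSO vehicle control wells.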

C=CC(=O)N1CCN(c2nc(=O)n(-c3c(C)ccnc3C(C)C)c3nc(-c4c(O)cccc4F)c(F)cc23)C(C)C1 (stereo unspecified) + CN(C)c1ccc(Nc2c3ccc(NC(=O)CCN4CCCC4)cc3nc3cc(NC(=O)CCN4CCCC4)ccc23)cc1 gave an IC50 (second compound 0.0316 µM) of over 10000 nM, an IC50 (second compound 0.1 µM) of over 10000 nM and an IC50 (second compound 0.316 µM) of over 10000 nM. For the same compound, the IC50 (second compound 1 µM) was over 10000 nM, the IC50 (second compound 3.16 µM) was under 31.6 nM and the IC50 (second compound 10 µM) was under 31.6 nM. For the same compound, the viability, T/C [1] was 82.5%, the viability, T/C (second compound 0.0316 µM, first compound 0.1 µM) was 60.8% and the viability, T/C [2] was 114%. For the same compound, the viability, T/C (second compound 0.0316 µM, first compound 1 µM) was 75.2%, the viability, T/C (second compound 0.0316 µM, first compound 3.16 µM) was 91.9% and the viability, T/C (second compound 0.0316 µM, first compound 10 µM) was 64.8%. It also gave a viability, T/C [3] of 73.5%, a viability, T/C (second compound 0.1 µM, first compound 0.1 µM) of 67.1% and a viability, T/C [4] of 78.9%. For the same compound, the viability, T/C (second compound 0.1 µM, first compound 1 µM) was 73%, the viability, T/C (second compound 0.1 µM, first compound 3.16 µM) was 108% and the viability, T/C (second compound 0.1 µM, first compound 10 µM) was 75.6%. The viability, T/C [5] was 79.5%, the viability, T/C (second compound 0.316 µM, first compound 0.1 µM) was 63.9% and the viability, T/C [6] was 88%. For the same compound, the viability, T/C (second compound 0.316 µM, first compound 1 µM) was 81.2%, the viability, T/C (second compound 0.316 µM, first compound 3.16 µM) was 97.5% and the viability, T/C (second compound 0.316 µM, first compound 10 µM) was 67.4%. For the same compound, the viability, T/C [7] was 85.9%, the viability, T/C (second compound 1 µM, first compound 0.1 µM) was 54.3% and the viability, T/C [8] was 76.3%. The viability, T/C (second compound 1 µM, first compound 1 µM) was 96.9%, the viability, T/C (second compound 1 µM, first compound 3.16 µM) was 94.5% and the viability, T/C (second compound 1 µM, first compound 10 µM) was 60.3%. For the same compound, the viability, T/C [9] was 42%, the viability, T/C (second compound 3.16 µM, first compound 0.1 µM) was 43.9% and the viability, T/C [10] was 35.4%. The viability, T/C (second compound 3.16 µM, first compound 1 µM) was 53.6%, the viability, T/C (second compound 3.16 µM, first compound 3.16 µM) was 43.7% and the viability, T/C (second compound 3.16 µM, first compound 10 µM) was 28.9%. For the same compound, the viability, T/C [11] was 6.52%, the viability, T/C (second compound 10 µM, first compound 0.1 µM) was 5.91% and the viability, T/C [12] was 6.86%. It also gave a viability, T/C (second compound 10 µM, first compound 1 µM) of 6.43%, a viability, T/C (second compound 10 µM, first compound 3.16 µM) of 3.58% and a viability, T/C (second compound 10 µM, first compound 10 µM) of 0.96%.
In the case of CC[C@@]1(O)C(=O)OCc2c1cc1n(c2=O)Cc2cc3c(CN(C)C)c(O)ccc3nc2-1 + CN(C)c1ccc(Nc2c3ccc(NC(=O)CCN4CCCC4)cc3nc3cc(NC(=O)CCN4CCCC4)ccc23)cc1, the IC50 (second compound 0.0316 µM) is reported as 18.5 nM, the IC50 (second compound 0.1 µM) is reported as 18.6 nM and the IC50 (second compound 0.316 µM) is reported as 18.7 nM. For the same compound, the IC50 (second compound 1 µM) was 11.8 nM, the IC50 (second compound 3.16 µM) was under 0.999 nM and the IC50 (second compound 10 µM) was under 0.999 nM. For the same compound, the viability, T/C [13] was 108%, the viability, T/C [14] was 75.3% and the viability, T/C [15] was 72.1%. The viability, T/C [1] was 37.2%, the viability, T/C [16] was 21.1% and the viability, T/C [2] was 27.1%. It also gave a viability, T/C [17] of 88.6%, a viability, T/C [18] of 74.7% and a viability, T/C [19] of 74.2%. For the same compound, the viability, T/C [3] was 29.5%, the viability, T/C [20] was 22.3% and the viability, T/C [4] was 23.6%. It also gave a viability, T/C [21] of 77.8%, a viability, T/C [22] of 65.9% and a viability, T/C [23] of 62.7%. For the same compound, the viability, T/C [5] was 41.5%, the viability, T/C [24] was 22% and the viability, T/C [6] was 23.9%. For the same compound, the viability, T/C [25] was 64.3%, the viability, T/C [26] was 96.1% and the viability, T/C [27] was 54%. For the same compound, the viability, T/C [7] was 30.4%, the viability, T/C [28] was 24.4% and the viability, T/C [8] was 22.7%. The viability, T/C [29] was 34.8%, the viability, T/C [30] was 45.4% and the viability, T/C [31] was 37.6%. The viability, T/C [9] was 26.2%, the viability, T/C [32] was 21.2% and the viability, T/C [10] was 20%. The viability, T/C [33] was 6.05%, the viability, T/C [34] was 6.87% and the viability, T/C [35] was 5.66%. The viability, T/C [11] was 4.71%, the viability, T/C [36] was 5.96% and the viability, T/C [12] was 4.24%.
Compound CCc1c2c(nc3ccc(O)cc13)-c1cc3c(c(=O)n1C2)COC(=O)[C@]3(O)CC + CN(C)c1ccc(Nc2c3ccc(NC(=O)CCN4CCCC4)cc3nc3cc(NC(=O)CCN4CCCC4)ccc23)cc1 has an IC50 (second compound 0.0316 µM) of under 0.999 nM, an IC50 (second compound 0.1 µM) of under 0.999 nM and an IC50 (second compound 0.316 µM) of under 0.999 nM. For the same compound, the IC50 (second compound 1 µM) was under 0.999 nM, the IC50 (second compound 3.16 µM) was under 0.999 nM and the IC50 (second compound 10 µM) was under 0.999 nM. The viability, T/C [13] was 46.8%, the viability, T/C [14] was 23.4% and the viability, T/C [15] was 26%. For the same compound, the viability, T/C [1] was 16.6%, the viability, T/C [16] was 17.7% and the viability, T/C [2] was 12.4%. The viability, T/C [17] was 43.7%, the viability, T/C [18] was 21.6% and the viability, T/C [19] was 22.2%. The viability, T/C [3] was 18.1%, the viability, T/C [20] was 17% and the viability, T/C [4] was 12.9%. It also gave a viability, T/C [21] of 41.9%, a viability, T/C [22] of 23.1% and a viability, T/C [23] of 20.3%. The viability, T/C [5] was 21.1%, the viability, T/C [24] was 19.2% and the viability, T/C [6] was 13.2%. For the same compound, the viability, T/C [25] was 39.4%, the viability, T/C [26] was 21.4% and the viability, T/C [27] was 24.2%. For the same compound, the viability, T/C [7] was 22.6%, the viability, T/C [28] was 19.4% and the viability, T/C [8] was 13.4%. The viability, T/C [29] was 29.8%, the viability, T/C [30] was 22% and the viability, T/C [31] was 19.5%. For the same compound, the viability, T/C [9] was 18.4%, the viability, T/C [32] was 16.8% and the viability, T/C [10] was 9.28%. It also gave a viability, T/C [33] of 4.84%, a viability, T/C [34] of 4.42% and a viability, T/C [35] of 4.45%. The viability, T/C [11] was 4.23%, the viability, T/C [36] was 4.1% and the viability, T/C [12] was 2.29%.
